Read-outs that look alike come from different tables or passages of the source. Blank lines part the entries; values can stand above or below the molecule they belong to.
What was measured:
GlyT1 transporter = target: T1, GlyT1 transporter (Homo sapiens, UniProt P48067); experiment: GlyT1 transporter [3H]-glycine uptake SPA assay in HEK293 cells; format: cell-based; conditions: for IC50: HEK293 cells expressing the Glycine (Type 1) transporter
T1 construct: expressed in transfected cells
T1 sequence (P48067 1-706): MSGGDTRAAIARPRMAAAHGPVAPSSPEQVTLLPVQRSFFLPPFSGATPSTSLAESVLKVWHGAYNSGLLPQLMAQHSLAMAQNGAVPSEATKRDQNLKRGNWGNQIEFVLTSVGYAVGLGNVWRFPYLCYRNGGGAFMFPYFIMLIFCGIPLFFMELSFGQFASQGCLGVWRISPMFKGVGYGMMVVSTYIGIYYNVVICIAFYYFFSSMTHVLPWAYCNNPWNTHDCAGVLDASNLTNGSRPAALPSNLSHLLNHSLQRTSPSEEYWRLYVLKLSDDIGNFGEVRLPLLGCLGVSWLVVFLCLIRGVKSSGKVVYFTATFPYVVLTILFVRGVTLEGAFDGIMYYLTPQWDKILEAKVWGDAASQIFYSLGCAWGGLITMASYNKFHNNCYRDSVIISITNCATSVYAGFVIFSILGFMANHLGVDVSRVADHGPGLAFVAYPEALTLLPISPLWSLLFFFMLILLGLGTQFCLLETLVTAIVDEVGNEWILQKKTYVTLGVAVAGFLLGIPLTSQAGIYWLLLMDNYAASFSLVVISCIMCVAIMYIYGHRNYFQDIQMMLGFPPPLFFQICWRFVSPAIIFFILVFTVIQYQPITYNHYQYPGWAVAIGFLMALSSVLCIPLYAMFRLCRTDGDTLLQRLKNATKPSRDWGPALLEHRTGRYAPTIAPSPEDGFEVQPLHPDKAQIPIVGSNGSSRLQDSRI
Method: The affinities of the compounds of this invention for the GlyT1 transporter were determined by the following assay:
HEK293 cells expressing the Glycine (Type 1) transporter were grown in cell culture medium [DMEM/NUT mix F12 containing 2 mM L-Glutamine, 0.8 mg/mL G418 and 10% heat inactivated fetal calf serum] at 37° C. and 5% CO2. Cells grown to 70-80% confluency in T175 flasks were harvested and frozen. For the assay, cells were defrosted and resuspended at 1.32×10^6 cells/mL in assay buffer [140 mM NaCl, 5.4 mM KCl, 1.8 mM CaCl2, 0.8 mM MgSO4, 20 mM HEPES, 5 mM glucose and 5 mM alanine, pH 7.4]. Compounds were serially diluted either 3-fold or 4-fold in DMSO from a top concentration of 2.5 mM with each compound giving a 11 data point dose-response. 100 nL of compound at each concentration was added to the assay plate. An equal volume of Leadseeker™ WGA SPA beads (12.5 mg/ml suspended in assay buffer) was added to the cell suspension (1.32×106) and 5 uL of the cell/bead suspension transferred to each well of a LV384-well white solid bottom plate (3300 cells/well) containing 100 nL of test compounds. Substrate (5 uL) was added to each well [1:100 dilution of [3H]-glycine stock in assay buffer containing 2.5 uM glycine). Final DMSO concentration was 1% v/v. Data was collected using a Perkin Elmer Viewlux™. pIC50 values were determined using ActivityBase™.

GlyT2 = target: T2, GlyT2 (Homo sapiens, UniProt Q9Y345); experiment: Affinity for GlyT1 compared with GlyT2 (statement, no method given); conditions: qualitative statement on the parent compound; no value given
T2 sequence (Q9Y345 1-797): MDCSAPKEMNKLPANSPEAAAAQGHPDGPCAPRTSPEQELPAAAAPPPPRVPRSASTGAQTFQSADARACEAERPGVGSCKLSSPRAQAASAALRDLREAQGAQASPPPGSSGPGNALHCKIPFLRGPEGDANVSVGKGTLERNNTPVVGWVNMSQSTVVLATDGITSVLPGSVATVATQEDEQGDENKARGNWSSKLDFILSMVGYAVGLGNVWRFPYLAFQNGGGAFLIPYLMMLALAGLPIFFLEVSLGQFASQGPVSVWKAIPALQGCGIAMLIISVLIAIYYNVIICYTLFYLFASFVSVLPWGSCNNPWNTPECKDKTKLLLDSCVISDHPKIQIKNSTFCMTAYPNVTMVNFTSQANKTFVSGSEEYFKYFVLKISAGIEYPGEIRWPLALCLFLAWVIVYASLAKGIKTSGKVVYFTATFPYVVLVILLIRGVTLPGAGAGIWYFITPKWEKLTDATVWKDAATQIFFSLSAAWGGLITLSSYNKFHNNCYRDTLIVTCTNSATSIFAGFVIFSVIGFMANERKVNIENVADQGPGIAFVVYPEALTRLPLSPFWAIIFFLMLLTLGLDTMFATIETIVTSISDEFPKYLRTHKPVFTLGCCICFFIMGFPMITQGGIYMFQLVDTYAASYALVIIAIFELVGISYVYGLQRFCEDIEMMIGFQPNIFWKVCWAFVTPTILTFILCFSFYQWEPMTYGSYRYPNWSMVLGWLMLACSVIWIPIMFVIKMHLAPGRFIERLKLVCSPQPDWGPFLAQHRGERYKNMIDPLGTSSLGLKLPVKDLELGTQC

IC50 (GlyT1 transporter; n=5, read-out: average pIC50 at the GlyT1 transporter (converted)): 15.8 nM
SMILES: COc1cc(C(F)(F)F)cc(C(F)(F)F)c1C(=O)N[C@H](c1ccccc1)C(C)(C)N1CCCC1 [R-(−)-2-(Methyloxy)-N-[2-methyl-1-phenyl-2-(1-pyrrolidinyl)propyl]-4,6-bis(trifluoromethyl)benzamide monosuccinate]

IC50 (GlyT1 transporter; n=1, read-out: pIC50 at the GlyT1 transporter (converted)): 5.01 nM
SMILES: COc1cc(C(F)(F)F)cc(C(F)(F)F)c1C(=O)N[C@H](c1ccccc1)C(C)(C)N1CCCC1 [R-(−)-2-(Methyloxy)-N-[2-methyl-1-phenyl-2-(1-pyrrolidinyl)propyl]-4,6-bis(trifluoromethyl)benzamide 1,5-heminapadisylate]

SMILES: COc1cc(C(F)(F)F)cc(C(F)(F)F)c1C(=O)NC(c1ccccc1)C(C)(C)N1CCCC1 (stereo not shown) [2-(methyloxy)-N-[2-methyl-1-phenyl-2-(1-pyrrolidinyl)propyl]-4,6-bis(trifluoromethyl)benzamide]
affinity for GlyT1 relative to GlyT2 (selectivity, result in words) (GlyT2): greater affinity for GlyT1 than for GlyT2 | inhibition of the glycine transporter type GlyT1 (result in words) (GlyT1 transporter; qualitative statement on the parent compound, no value given): inhibitor of the glycine transporter type GlyT1
